Source: ChEMBL document CHEMBL1155071, “Discovery of novel 1,2,3,4-tetrahydroisoquinolines and 3,4-dihydroisoquinoline-1(2H)-ones as potent and selective inhibitors of KDR: synthesis, SAR, and pharmacokinetic properties” (Bioorg Med Chem Lett, 2008)
≈ marks a conversion by molar mass, not a printed value.

Key:
HUVEC [1] = test: Antiproliferative activity against FGF-induced HUVEC; format: functional, cell-based; settings: Homo sapiens
[2] = biological target: Vascular endothelial growth factor receptor 2 (Homo sapiens, UniProt P35968); test: Inhibition of KDR
[3] = Aqueous solubility in simulated intestinal fluid at pH 6.8; format: physicochemical
HUVEC [4] = test: Antiproliferative activity against VEGF-induced HUVEC; format: functional, cell-based; settings: Homo sapiens

Sequence of Vascular endothelial growth factor receptor 2 (P35968 whole entry): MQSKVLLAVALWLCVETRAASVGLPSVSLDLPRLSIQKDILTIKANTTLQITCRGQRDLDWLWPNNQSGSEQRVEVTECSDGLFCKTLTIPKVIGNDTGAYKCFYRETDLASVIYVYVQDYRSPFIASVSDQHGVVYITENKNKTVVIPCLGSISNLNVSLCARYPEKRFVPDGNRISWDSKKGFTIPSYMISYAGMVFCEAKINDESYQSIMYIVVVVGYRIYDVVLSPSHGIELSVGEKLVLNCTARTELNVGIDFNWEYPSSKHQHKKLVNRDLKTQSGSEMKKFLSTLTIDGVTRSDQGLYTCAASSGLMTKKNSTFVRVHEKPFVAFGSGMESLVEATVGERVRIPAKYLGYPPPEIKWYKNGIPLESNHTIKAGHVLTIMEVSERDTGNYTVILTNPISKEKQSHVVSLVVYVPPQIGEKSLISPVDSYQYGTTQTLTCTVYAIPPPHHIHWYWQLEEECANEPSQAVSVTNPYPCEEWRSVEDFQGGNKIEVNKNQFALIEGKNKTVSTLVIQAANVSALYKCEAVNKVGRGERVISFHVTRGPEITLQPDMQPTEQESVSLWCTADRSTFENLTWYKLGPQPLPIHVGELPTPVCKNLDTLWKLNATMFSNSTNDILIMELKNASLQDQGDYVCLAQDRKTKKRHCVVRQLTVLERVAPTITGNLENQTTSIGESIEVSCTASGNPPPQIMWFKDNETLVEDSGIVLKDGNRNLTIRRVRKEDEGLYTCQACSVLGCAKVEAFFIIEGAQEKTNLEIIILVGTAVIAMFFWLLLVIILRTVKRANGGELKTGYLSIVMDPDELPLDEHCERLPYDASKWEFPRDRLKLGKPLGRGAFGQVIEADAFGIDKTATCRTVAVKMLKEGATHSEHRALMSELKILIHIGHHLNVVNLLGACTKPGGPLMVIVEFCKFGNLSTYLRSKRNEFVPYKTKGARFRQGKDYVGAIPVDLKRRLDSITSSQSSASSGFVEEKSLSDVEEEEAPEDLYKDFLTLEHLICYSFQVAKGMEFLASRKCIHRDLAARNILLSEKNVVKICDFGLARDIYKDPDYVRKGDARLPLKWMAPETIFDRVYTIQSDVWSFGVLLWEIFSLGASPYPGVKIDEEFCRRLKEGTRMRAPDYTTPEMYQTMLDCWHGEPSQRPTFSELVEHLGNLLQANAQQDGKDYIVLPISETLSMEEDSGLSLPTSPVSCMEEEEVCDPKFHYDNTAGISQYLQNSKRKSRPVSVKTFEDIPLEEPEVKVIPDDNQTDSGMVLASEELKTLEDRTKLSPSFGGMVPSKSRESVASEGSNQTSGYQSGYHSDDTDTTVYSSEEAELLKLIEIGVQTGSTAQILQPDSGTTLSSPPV

Row | Compound | IC50 (HUVEC [1]) [nM] | IC50 [2] [nM] | solubility [3] [µg/mL] | IC50 (HUVEC [4]) [nM]
1 | COc1cc2nccc(Oc3ccc4c(C(=O)Nc5ccc(Cl)cc5)cccc4c3)c2cc1OC | > 1140 | – | – | –
2 | COc1cc2nccc(CN3CCc4c(cccc4C(=O)Nc4ccc(C(C)(C)C)cc4)C3)c2cc1OC | > 1140 | 1 | 34 (≈ 66.7 µM) | 6
3 | COc1cc2nccc(CN3CCc4c(cccc4C(=O)Nc4ccc(Cl)cc4)C3)c2cc1OC | – | 165 | 12 (≈ 24.6 µM) | –
4 | COc1cc2nccc(CN3CCc4c(C(=O)Nc5ccc(Cl)c(C(F)(F)F)c5)cccc4C3=O)c2cc1OC | > 1140 | 3 | 24 (≈ 42.1 µM) | 22
5 | COCCNC(=O)c1cccc2c1CCN(Cc1ccnc3cc(OC)c(OC)cc13)C2 | – | 3000 | > 200 | –
